Data published in ChEMBL document CHEMBL2074156, “Inhibition of P-glycoprotein activity and reversal of multidrug resistance in vitro by rosemary extract” (Eur J Cancer, 1999).

Target: ATP-dependent translocase ABCB1 (Homo sapiens, UniProt P08183)
Test: TP_TRANSPORTER: inhibition of Doxorubicin and Vinblastine efflux in drug-resistant MCF-7 cells
Assay type: functional, cell-based
Details: mcf7

Chain of ATP-dependent translocase ABCB1 (P08183 whole entry): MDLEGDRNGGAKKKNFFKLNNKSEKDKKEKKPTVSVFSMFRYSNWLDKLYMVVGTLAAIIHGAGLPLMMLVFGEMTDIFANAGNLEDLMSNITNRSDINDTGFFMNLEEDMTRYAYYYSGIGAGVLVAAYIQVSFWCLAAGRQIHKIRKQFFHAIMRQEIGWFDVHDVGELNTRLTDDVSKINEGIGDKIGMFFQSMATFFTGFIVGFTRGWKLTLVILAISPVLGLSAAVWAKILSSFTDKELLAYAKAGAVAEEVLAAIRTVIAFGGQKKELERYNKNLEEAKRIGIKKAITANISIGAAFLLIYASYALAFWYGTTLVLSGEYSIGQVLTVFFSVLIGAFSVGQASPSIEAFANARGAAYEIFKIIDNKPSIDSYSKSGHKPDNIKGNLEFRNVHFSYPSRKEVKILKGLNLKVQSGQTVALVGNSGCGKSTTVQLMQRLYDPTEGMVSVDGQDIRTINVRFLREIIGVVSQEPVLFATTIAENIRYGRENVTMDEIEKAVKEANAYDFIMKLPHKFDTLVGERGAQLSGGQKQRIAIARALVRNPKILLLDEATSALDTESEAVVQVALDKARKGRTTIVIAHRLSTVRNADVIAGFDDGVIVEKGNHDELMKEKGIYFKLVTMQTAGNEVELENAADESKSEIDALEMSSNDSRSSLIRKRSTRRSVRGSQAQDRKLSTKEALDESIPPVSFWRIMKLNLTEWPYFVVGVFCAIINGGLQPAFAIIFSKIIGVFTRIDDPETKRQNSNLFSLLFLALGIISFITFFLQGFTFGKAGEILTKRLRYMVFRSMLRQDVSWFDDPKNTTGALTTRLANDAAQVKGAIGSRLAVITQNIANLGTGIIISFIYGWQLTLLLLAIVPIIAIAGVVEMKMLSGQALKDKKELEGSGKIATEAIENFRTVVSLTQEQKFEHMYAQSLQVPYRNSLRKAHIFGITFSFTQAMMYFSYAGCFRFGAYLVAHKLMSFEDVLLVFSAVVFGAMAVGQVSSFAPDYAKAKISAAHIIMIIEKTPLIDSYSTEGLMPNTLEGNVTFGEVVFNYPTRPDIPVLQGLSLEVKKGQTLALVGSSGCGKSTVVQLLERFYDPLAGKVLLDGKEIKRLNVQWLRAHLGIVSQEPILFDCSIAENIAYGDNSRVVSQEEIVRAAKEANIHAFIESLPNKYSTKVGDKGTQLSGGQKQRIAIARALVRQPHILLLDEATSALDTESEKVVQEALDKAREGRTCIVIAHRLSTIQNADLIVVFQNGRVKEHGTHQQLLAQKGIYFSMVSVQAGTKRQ

Activity: inhibitor [+]
Sequence: ROSEMARY EXTRACT
